Results taken from patent US20220054513A1, “COMBINATION COMPOSITIONS COMPRISING A BETA-LACTAMASE INHIBITOR” (VenatoRx Pharmaceuticals, Inc., priority 2018, published 2022).
Where two headings read alike, the source gives them in different places.

Key:
[1] = test system: cefepime-resistant clinical isolates of Enterobacteriaceae and P. aeruginosa; experiment: neutropenic murine thigh infection model, human simulated regimens; type: in vivo, mice; details: human simulated regimen (HSR) of 2 g cefepime alone q8 h; at 24 h; 30 strains
From the text: The 2 g:0.5 g dose of cefepime:Compound 1 which is planned for clinical efficacy studies is supported by neutropenic murine thigh infection model studies using 30 cefepime-resistant clinical isolates of Enterobacteriaceae and P. aeruginosa.

MDR-Acinetobacter = experiment: broth microdilution MIC of cefiderocol +/- Compound 1 in IDM, panel of 40 MDR Acinetobacter; type: cell-based, A. baumannii; details: for MIC: read-out: Minimum inhibitory concentration (MIC)
[2] = test system: β-lactamase expressing K. pneumoniae; experiment: broth microdilution MIC of cefiderocol +/- Compound 1, K. pneumoniae strains; type: cell-based; details: Klebsiella pneumoniae
[3] = test system: β-lactamase expressing Enterobacteriaceae; experiment: broth microdilution MIC of cefiderocol +/- Compound 1, panel of 30 Enterobacteriaceae strains (MIC50/MIC90); type: cell-based
[4] = test system: β-lactamase expressing E. coli; experiment: broth microdilution MIC of cefiderocol +/- Compound 1, E. coli strains; type: cell-based; details: Escherichia coli
[5] = Acinetobacter baumannii, panel of 40 MDR Acinetobacter, IDM

CO/N=C(\C(=O)N[C@@H]1C(=O)N2C(C(=O)[O-])=C(C[N+]3(C)CCCC3)CS[C@H]12)c1csc(N)n1 [FEP, cefepime]
approximately 2.7 log10 CFU/thigh: growth on average compared to the T=0 control [1]

CC(C)(O/N=C(\C(=O)N[C@@H]1C(=O)N2C(C(=O)[O-])=C(C[N+]3(CCNC(=O)c4ccc(O)c(O)c4Cl)CCCC3)CS[C@H]12)c1csc(N)n1)C(=O)O [FDC, cefiderocol]
128 µg/mL: MIC ([2]; read-out: Minimum inhibitory concentration (MIC), K. pneummoniae CDC-41 (NDM), MHBII) | MIC ([4]; read-out: Minimum inhibitory concentration (MIC), E. coli CDC-150 (NDM-5), MHBII)
8.1 µg/mL: MIC (MDR-Acinetobacter; Acinetobacter baumannii, A. baumannii CDC-0088, IDM)
1 µg/mL: MIC (MDR-Acinetobacter; Acinetobacter baumannii, A. baumannii CDC-0036, IDM) | MIC (MDR-Acinetobacter; Acinetobacter baumannii, A. baumannii CDC-0083, IDM) | MIC (MDR-Acinetobacter; Acinetobacter baumannii, A. baumannii CDC-0102, IDM) | MIC (MDR-Acinetobacter; Acinetobacter baumannii, A. baumannii GM235, IDM) | MIC (MDR-Acinetobacter; Acinetobacter baumannii, NCTC13301, A. baumannii NCTC 13301, IDM) | MIC ([2]; read-out: Minimum inhibitory concentration (MIC), K. pneummoniae CDC-40 (VIM), IDM) | MIC ([4]; read-out: Minimum inhibitory concentration (MIC), E. coli GUE 131 (NDM-1), IDM) | MIC ([4]; read-out: Minimum inhibitory concentration (MIC), E. coli SI-155S (VIM-1), IDM)
2 µg/mL: MIC (MDR-Acinetobacter; Acinetobacter baumannii, A. baumannii GM239, IDM) | MIC ([2]; read-out: Minimum inhibitory concentration (MIC), K. pneummoniae CDC-34 (IMP), MHBII) | MIC ([2]; read-out: Minimum inhibitory concentration (MIC), K. pneummoniae CDC-40 (VIM), MHBII) | MIC ([2]; read-out: Minimum inhibitory concentration (MIC), K. pneumoniae 847375 (SHV-12, KPC-2), IDM) | MIC ([2]; read-out: Minimum inhibitory concentration (MIC), K. pneumoniae OMAN 13 (NDM-1), IDM) | MIC ([4]; read-out: Minimum inhibitory concentration (MIC), E. coli 128 (AmpC, SHV-12, TOHO-2, TEM-1), MHBII) | MIC ([4]; read-out: Minimum inhibitory concentration (MIC), E. coli GUE 131 (NDM-1), MHBII) | MIC ([4]; read-out: Minimum inhibitory concentration (MIC), E. coli SI-155S (VIM-1), MHBII)
32 µg/mL: MIC ([2]; read-out: Minimum inhibitory concentration (MIC), K. pneummoniae CDC-153 (NDM, OXA-232), MHBII) | MIC ([2]; read-out: Minimum inhibitory concentration (MIC), K. pneumoniae 847375 (SHV-12, KPC-2), MHBII) | MIC ([2]; read-out: Minimum inhibitory concentration (MIC), K. pneumoniae KIRK (OXA-162), MHBII) | MIC ([2]; read-out: Minimum inhibitory concentration (MIC), K. pneumoniae OMAN 13 (NDM-1), MHBII) | MIC90 ([3]; MHBII)
0.25 µg/mL: MIC (MDR-Acinetobacter; Acinetobacter baumannii, A. baumannii 157070, IDM) | MIC (MDR-Acinetobacter; Acinetobacter baumannii, A. baumannii 157072, IDM) | MIC (MDR-Acinetobacter; Acinetobacter baumannii, A. baumannii 161754, IDM) | MIC (MDR-Acinetobacter; Acinetobacter baumannii, A. baumannii 164899, IDM) | MIC (MDR-Acinetobacter; Acinetobacter baumannii, A. baumannii CDC-0035, IDM) | MIC (MDR-Acinetobacter; Acinetobacter baumannii, A. baumannii CDC-0070, IDM) | MIC (MDR-Acinetobacter; Acinetobacter baumannii, A. baumannii GM237, IDM) | MIC (MDR-Acinetobacter; Acinetobacter baumannii, A. baumannii GM238, IDM) | MIC (MDR-Acinetobacter; Acinetobacter baumannii, ATCC17978, A. baumannii ATCC 17978, IDM) | MIC50 (MDR-Acinetobacter; [5]) | MIC ([2]; read-out: Minimum inhibitory concentration (MIC), K. pneummoniae CDC-140 (OXA-181), IDM) | MIC ([2]; read-out: Minimum inhibitory concentration (MIC), K. pneumoniae KIRK (OXA-162), IDM) | MIC ([4]; read-out: Minimum inhibitory concentration (MIC), E. coli 786978 (KPC 2), IDM) | MIC ([4]; read-out: Minimum inhibitory concentration (MIC), E. coli CDC-61 (KPC-3 TEM-1), MHBII) | MIC ([4]; read-out: Minimum inhibitory concentration (MIC), E. coli SI-P026TC (CMY-2, TEM-1), MHBII)
0.125 µg/mL: Minimum inhibitory concentration (MIC) (MDR-Acinetobacter; A. baumannii 157076, IDM) | Minimum inhibitory concentration (MIC) (MDR-Acinetobacter; A. baumannii 157078, IDM) | Minimum inhibitory concentration (MIC) (MDR-Acinetobacter; A. baumannii 161761, IDM) | Minimum inhibitory concentration (MIC) (MDR-Acinetobacter; A. baumannii 163264, IDM) | Minimum inhibitory concentration (MIC) (MDR-Acinetobacter; A. baumannii 164890, IDM) | Minimum inhibitory concentration (MIC) (MDR-Acinetobacter; A. baumannii 164891, IDM) | Minimum inhibitory concentration (MIC) (MDR-Acinetobacter; A. baumannii 165039, IDM) | Minimum inhibitory concentration (MIC) (MDR-Acinetobacter; A. baumannii CDC-0056, IDM) | MIC (MDR-Acinetobacter; Acinetobacter baumannii) | MIC ([2]; read-out: Minimum inhibitory concentration (MIC), K. pneummoniae CDC-34 (IMP), IDM) | MIC ([2]; read-out: Minimum inhibitory concentration (MIC), K. pneumoniae 847747 (CTX-M-2, KPC), IDM) | MIC ([4]; read-out: Minimum inhibitory concentration (MIC), E. coli 3327 (TEM-1, SHV-12), IDM) | MIC ([4]; read-out: Minimum inhibitory concentration (MIC), E. coli CDC-61 (KPC-3 TEM-1), IDM) | MIC ([4]; read-out: Minimum inhibitory concentration (MIC), E. coli SI-151 (VIM-1), IDM) | MIC ([4]; read-out: Minimum inhibitory concentration (MIC), E. coli SI-152 (NDM-1), IDM) | MIC ([4]; read-out: Minimum inhibitory concentration (MIC), E. coli SI-152 (NDM-1), MHBII) | MIC ([4]; read-out: Minimum inhibitory concentration (MIC), E. coli SI-P026TC (CMY-2, TEM-1), IDM)
64 µg/mL: MIC ([4]; read-out: Minimum inhibitory concentration (MIC), E. coli 787112 (OXA 48), IDM) | MIC ([4]; read-out: Minimum inhibitory concentration (MIC), E. coli 787112 (OXA 48), MHBII)
0.03 µg/mL: MIC (MDR-Acinetobacter; Acinetobacter baumannii, A. baumannii 157071, IDM) | MIC (MDR-Acinetobacter; Acinetobacter baumannii, A. baumannii 163169, IDM) | MIC (MDR-Acinetobacter; Acinetobacter baumannii, A. baumannii GM236, IDM)
0.5 µg/mL: MIC (MDR-Acinetobacter; Acinetobacter baumannii, A. baumannii 0045, IDM) | MIC (MDR-Acinetobacter; Acinetobacter baumannii, A. baumannii 157079, IDM) | MIC (MDR-Acinetobacter; Acinetobacter baumannii, A. baumannii 161763, IDM) | MIC (MDR-Acinetobacter; Acinetobacter baumannii, A. baumannii CDC-0033, IDM) | MIC (MDR-Acinetobacter; Acinetobacter baumannii, A. baumannii CDC-0063, IDM) | MIC (MDR-Acinetobacter; Acinetobacter baumannii, A. baumannii CDC-0078, IDM) | MIC ([2]; read-out: Minimum inhibitory concentration (MIC), K. pneummoniae CDC-140 (OXA-181), MHBII) | MIC ([2]; read-out: Minimum inhibitory concentration (MIC), K. pneumoniae 847204 (KPC-2), IDM) | MIC ([2]; read-out: Minimum inhibitory concentration (MIC), K. pneumoniae KPC157 (KPC-3), IDM) | MIC ([2]; read-out: Minimum inhibitory concentration (MIC), K. pneumoniae KPC261 (KPC-2), IDM) | MIC50 ([3]; IDM) | MIC ([4]; read-out: Minimum inhibitory concentration (MIC), E. coli 128 (AmpC, SHV-12, TOHO-2, TEM-1), IDM) | MIC ([4]; read-out: Minimum inhibitory concentration (MIC), E. coli 3073 (AmpC, CTX-M3), IDM) | MIC ([4]; read-out: Minimum inhibitory concentration (MIC), E. coli 3327 (TEM-1, SHV-12), MHBII) | MIC ([4]; read-out: Minimum inhibitory concentration (MIC), E. coli CDC-114 (KPC-3), IDM) | MIC ([4]; read-out: Minimum inhibitory concentration (MIC), E. coli SI-151 (VIM-1), MHBII)
16 µg/mL: MIC ([2]; read-out: Minimum inhibitory concentration (MIC), K. pneumoniae 847204 (KPC-2), MHBII) | MIC ([2]; read-out: Minimum inhibitory concentration (MIC), K. pneumoniae KPC261 (KPC-2), MHBII) | MIC ([2]; read-out: Minimum inhibitory concentration (MIC), K. pneumoniae SI-117 (VIM-1), MHBII)
8 µg/mL: MIC (MDR-Acinetobacter; Acinetobacter baumannii, A. baumannii CDC-0052, IDM) | MIC ([2]; read-out: Minimum inhibitory concentration (MIC), K. pneummoniae CDC-41 (NDM), IDM) | MIC ([2]; read-out: Minimum inhibitory concentration (MIC), K. pneumoniae 847747 (CTX-M-2, KPC), MHBII) | MIC ([2]; read-out: Minimum inhibitory concentration (MIC), K. pneumoniae KPC157 (KPC-3), MHBII) | MIC ([4]; read-out: Minimum inhibitory concentration (MIC), E. coli 3073 (AmpC, CTX-M3), MHBII)
4 µg/mL: MIC (MDR-Acinetobacter; Acinetobacter baumannii, A. baumannii 157865, IDM) | MIC (MDR-Acinetobacter; Acinetobacter baumannii, A. baumannii CDC-0037, IDM) | MIC (MDR-Acinetobacter; Acinetobacter baumannii, A. baumannii SI-141, IDM) | MIC90 (MDR-Acinetobacter; [5]) | MIC ([2]; read-out: Minimum inhibitory concentration (MIC), K. pneumoniae SI-117 (VIM-1), IDM) | MIC90 ([3]; IDM) | MIC50 ([3]; MHBII) | MIC ([4]; read-out: Minimum inhibitory concentration (MIC), E. coli 786978 (KPC 2), MHBII) | MIC ([4]; read-out: Minimum inhibitory concentration (MIC), E. coli CDC-114 (KPC-3), MHBII) | MIC ([4]; read-out: Minimum inhibitory concentration (MIC), E. coli CDC-150 (NDM-5), IDM)
0.06 µg/mL: MIC (MDR-Acinetobacter; Acinetobacter baumannii, A. baumannii 157074, IDM) | MIC (MDR-Acinetobacter; Acinetobacter baumannii, A. baumannii CDC-0101, IDM) | MIC ([2]; read-out: Minimum inhibitory concentration (MIC), K. pneummoniae CDC-153 (NDM, OXA-232), IDM)
